# Measured values taken from US10369145B2, “Coumarin derivatives and methods of use in treating hyperproliferative diseases” (DISCOVERYBIOMED, INC., priority 2013, dated 2019).
# Where two headings read alike, the source gives them in different places.
# Key:
# RPMI-8226 = test: NCI 60 panel: RPMI-8226 (Leukemia); assay type: cell-based
# A549 = test: NCI 60 panel: A549 (Non-Small Cell Lung Cancer); assay type: cell-based
# NCI-H23 = test: NCI 60 panel: NCI-H23 (Non-Small Cell Lung Cancer); assay type: cell-based
# HCT-116 = test: NCI 60 panel: HCT-116 (Colon Cancer); assay type: cell-based
# HT29 = test: NCI 60 panel: HT29 (Colon Cancer); assay type: cell-based
# M14 = test: NCI 60 panel: M14 (Melanoma); assay type: cell-based
# MDA-MB-435 = test: NCI 60 panel: MDA-MB-435 (Melanoma); assay type: cell-based
# SK-MEL-2 = test: NCI 60 panel: SK-MEL-2 (Melanoma); assay type: cell-based
# SK-MEL-28 = test: NCI 60 panel: SK-MEL-28 (Melanoma); assay type: cell-based
# UACC-257 = test: NCI 60 panel: UACC-257 (Melanoma); assay type: cell-based
# OVCAR-5 = test: NCI 60 panel: OVCAR-5 (Ovarian Cancer); assay type: cell-based
# NCI/ADR-RES = tested on: NCI/ADR-RES
# Description: (§1) TGI means the drug concentration resulting in total growth inhibition or “cytostasis.” LC50 is the concentration of drug resulting in a 50% reduction in the measured cytosolic ATP at the end of the drug treatment as compared to that at the beginning, indicating a net loss of cells following treatment (cytotoxicity).
# (§2) A major limitation with the anti-mitotic drugs in particular and in conventional chemotherapeutics in general, is their susceptibility to cellular mechanisms of adaptive/intrinsic multi-drug resistance (i.e., MDR efflux pumps such as p-glycoprotein, MRP1).
# OVCAR-3 = tested on: OVCAR-3
# Description: as §1, §2
# SK-OV-3 = tested on: SK-OV-3
# Description: as §1, §2
# A498 = test: NCI 60 panel: A498 (Renal Cancer); assay type: cell-based
# SN12C = test: NCI 60 panel: SN12C (Renal Cancer); assay type: cell-based
# UO-31 = test: NCI 60 panel: UO-31 (Renal Cancer); assay type: cell-based
# BT-549 = test: NCI 60 panel: BT-549 (Breast Cancer); assay type: cell-based
# ARH-77 = test: Complementary DBM in vitro profiling: ARH-77 (Hematologic Cancer); assay type: cell-based
# Description: The compounds described herein are effective for inhibiting cellular proliferation in hyperproliferative cell types. To study the effects of these compounds, an assay was developed to differentiate the effects of the compounds on proliferating versus confluent cells. The assay design generates a proliferating density 24 hours after seeding and provides a 3-day active cell growth/doubling window in which to gauge the anti-proliferative effect of the compounds described herein. […] In this 3-day growth window, cell number increases with daily doublings across the 72-hour period (see FIG. 1).
# In each assay design, compounds were added at the 24-hour timepoint after cell seeding. The effect of the compounds, relative to vehicle control and to VelCade (a proteasome inhibitor approved in the U.S. for treating relapsed multiple myeloma and mantle cell lymphoma) as a positive control, was assessed across the 3-day growth window for proliferating cells and on an already near confluent culture of cells for the same time period. Normal cells were handled in the same manner, with some adjustment of seeding density needed in select cases. […]
# Cell number at the end of the assay was determined using the CELLTITER-GLO Luminescent Cell Viability Assay (Promega; Madison, Wis.). The CELLTITER-GLO Luminescent Cell Viability Assay is a homogeneous method of determining the number of viable cells in culture based on quantitation of the ATP present, an indicator of metabolically active cells. IC50 values were calculated. […]
# For a typical screening experiment to identify the compounds, cells were seeded into 96- or 384-well microtiter plates at plating densities pre-determined for each cell line to ensure drug exposure occurs during the proliferative phase well before confluency is reached. […] Values were calculated for each of these three parameters if the level of activity was reached; however, if the effect was not reached or was exceeded, the value for that parameter was expressed as greater or less than the maximum or minimum concentration tested.
# [1] = tested on: hyperproliferative PKD cells (cloned polycystic kidney tissue cells); test: Concentration-response in primary cultures cloned from cystic kidney tissue; assay type: cell-based; conditions: hyperproliferative PKD cells, 72 hour treatment
# Description: The concentration-response effects of Compound DBM 228, Compound DBM 308, Compound DBM 101, and Compound DBM 328 were determined in primary cultures derived as ‘clones’ from cystic versus non-cystic kidney tissue. CRC graphs, IC50 values, and the percent maximum inhibition versus lowest doses without effect were calculated with GraphPad Prism software. […] There was also a marked separation in effect between hyperproliferative PKD cells (FIG. 5A and Table 3) and WT cells (FIG. 5B and Table 4).
# [2] = read-out: LC50 (the source's name)
structure (smiles),measurement,setting,value
COc1ccccc1Nc1nc(-c2cc3cccc(N)c3oc2=O)cs1 [Compound DBM 228],GI50,RPMI-8226,238 nM
same,TGI,RPMI-8226,43900 nM
same,CC50,RPMI-8226; [2],> 100000 nM
same,GI50,A549,97 nM
same,TGI,A549,22600 nM
same,CC50,A549; [2],> 100000 nM
same,GI50,NCI-H23,504 nM
same,TGI,NCI-H23,15800 nM
same,CC50,NCI-H23; [2],63100 nM
same,GI50,HCT-116,79.5 nM
same,TGI,HCT-116,10000 nM
same,CC50,HCT-116; [2],> 100000 nM
same,GI50,HT29,308 nM
same,TGI,HT29,1600 nM
same,CC50,HT29; [2],24700 nM
same,GI50,M14,70.8 nM
same,CC50,M14; [2],49900 nM
same,GI50,MDA-MB-435,23.1 nM
same,TGI,MDA-MB-435,67.9 nM
same,CC50,MDA-MB-435; [2],69500 nM
same,GI50,SK-MEL-2,86 nM
same,TGI,SK-MEL-2,28400 nM
same,CC50,SK-MEL-2; [2],99500 nM
same,GI50,SK-MEL-28,88.9 nM
same,TGI,SK-MEL-28,31000 nM
same,CC50,SK-MEL-28; [2],99300 nM
same,TGI,UACC-257,33700 nM
same,CC50,UACC-257; [2],> 100000 nM
same,GI50,OVCAR-5,592 nM
same,TGI,OVCAR-5,15700 nM
same,CC50,OVCAR-5; [2],51900 nM
same,CC50,NCI/ADR-RES,> 100000 nM
same,"potency in multi-drug resistant line, in words (FIG. 9)",NCI/ADR-RES; NCI-ADR/RES versus drug-responsive cells,remained potent
same,GI50,NCI/ADR-RES; NCI/ADR-RES,45.9 nM
same,TGI,NCI/ADR-RES; NCI/ADR-RES,327 nM
same,IC50,"NCI/ADR-RES; read-out: potency in the NCI-ADR/RES cell line, multi-drug resistant NCI-ADR/RES",44.5 nM
same,CC50,OVCAR-3,24200 nM
same,GI50,OVCAR-3; OVCAR-3,45.6 nM
same,TGI,OVCAR-3; OVCAR-3,322 nM
same,GI50,"OVCAR-3; OVCAR-3, as stated in text",50 nM
same,CC50,SK-OV-3,> 100000 nM
same,GI50,SK-OV-3; SK-OV-3,410 nM
same,TGI,SK-OV-3; SK-OV-3,22000 nM
same,GI50,"SK-OV-3; SK-OV-3, as stated in text",330 nM
same,GI50,A498,35.4 nM
same,TGI,A498,4420 nM
same,CC50,A498; [2],> 100000 nM
same,GI50,SN12C,526 nM
same,TGI,SN12C,>100000 nM
same,CC50,SN12C; [2],> 100000 nM
same,GI50,UO-31,1460 nM
same,TGI,UO-31,43000 nM
same,CC50,UO-31; [2],> 100000 nM
same,GI50,BT-549,239 nM
same,TGI,BT-549,12300 nM
same,CC50,BT-549; [2],> 100000 nM
same,GI50,ARH-77,154 nM
same,TGI,ARH-77,339 nM
same,CC50,ARH-77; [2],> 30000 nM
same,IC50,[1],690 nM
same,Max inhibition,[1],61%
